Blank lines part the entries; values can stand above or below the compound they belong to.
Key:
[1] = system: HT29 colon carcinoma cells; assay: Cell growth inhibition (CellTiter-Glo), HT29; assay type: cell-based; settings: Homo sapiens, HT-29, 72 h, 3 days
From the text: (§1) Esophageal carcinoma cell line OE33 was purchased from ECACC European Collection of Cell Cultures (UK). Breast cancer cell line JIMT-1 and gastric carcinoma cell line MKN-45 were purchased from Deutsche Sammlung von Mikroorganismen and Zellkulturen GmbH (Germany); KPL-4, a human breast cancer cell line was kindly provided by Prof. J Kurebayashi (Kawasaki Medical School, Kurashiki, Japan). […] The LICR-LON-HN5 head and neck carcinoma cell line (HN5) was a gift from the Institute of Cancer Research, Surrey, U.K. HN5C12 was developed by single-cell cloning of HN5 followed by exposure to increasing concentrations of lapatinib. […] Cell growth inhibition was determined via CellTiter-Glo cell viability assays. […] ATP levels were determined by adding Cell Titer Glo0 (Promega), incubating for 20 minutes then the luminescent signal was read on the SpectraMax M5 plate with a 0.5 second integration time. Cell growth was calculated relative to vehicle (DMSO) treated control wells. […] CI values were calculated with the interpolated IC50 values and the mutually non-exclusive equation derived by Chou and […](a)+Db/IC50(b)+(Da×Db)/(IC50(a)×IC50(b)) where IC50(a) is the IC50 of the inhibitor A; IC50(b) is the IC50 for the inhibitor B; […] […] EOHSA at each dose was calculated as the minimum difference in average % inhibition between the combination and each monotherapy, from the appropriate ANOVA contrast. […]

[2] = system: SW48 colon carcinoma cells; assay: Cell growth inhibition (CellTiter-Glo), SW48; assay type: cell-based; settings: Homo sapiens, SW48, 72 h, 3 days
From the text: as §1

[3] = system: AGS gastric carcinoma cells; assay: Cell growth inhibition (CellTiter-Glo), AGS; assay type: cell-based; settings: Homo sapiens, 72 h, gastric_AGS, 3 days
From the text: as §1

[4] = system: MKN-45 gastric carcinoma cells; assay: Cell growth inhibition (CellTiter-Glo), MKN-45; assay type: cell-based; settings: Homo sapiens, MKN-45, MKN-45 (HER3-over)
From the text: as §1

[5] = system: HS746T gastric carcinoma cells; assay: Cell growth inhibition (CellTiter-Glo), HS746T; assay type: cell-based; settings: Homo sapiens, HS746T (HER3-low)
From the text: as §1

[6] = system: OE33 esophageal carcinoma cells; assay: Cell growth inhibition (CellTiter-Glo), OE33; assay type: cell-based, human; settings: 3 days
From the text: (§2) Esophageal carcinoma cell line OE33 was purchased from ECACC European Collection of Cell Cultures (UK). Breast cancer cell line JIMT-1 and gastric carcinoma cell line MKN-45 were purchased from Deutsche Sammlung von Mikroorganismen and Zellkulturen GmbH (Germany); KPL-4, a human breast cancer cell line was kindly provided by Prof. J Kurebayashi (Kawasaki Medical School, Kurashiki, Japan). […] The LICR-LON-HN5 head and neck carcinoma cell line (HN5) was a gift from the Institute of Cancer Research, Surrey, U.K. HN5C12 was developed by single-cell cloning of HN5 followed by exposure to increasing concentrations of lapatinib. […] Cell growth inhibition was determined via CellTiter-Glo cell viability assays. […] BT474-J4 and HN5C12 were washed with PBS and plated in their culture media without lapatinib. […] ATP levels were determined by adding Cell Titer Glo0 (Promega), incubating for 20 minutes then the luminescent signal was read on the SpectraMax M5 plate with a 0.5 second integration time. Cell growth was calculated relative to vehicle (DMSO) treated control wells. […] Excess Over Highest Single Agent (EOHSA) is defined as a statistically significant improvement in the combination compared to the component monotherapies. […] Analysis was conducted using two-factor analysis of variance with interaction (model terms were dose of drug A, dose of drug B, and interaction between doses of drug A and B), followed by linear contrasts between each combination group and corresponding monotherapies. Analysis was conducted using SAS (version 9, provided by SAS Institute, Cary, N.C.). EOHSA at each dose was calculated as the minimum difference in average % inhibition between the combination and each monotherapy, from the appropriate ANOVA contrast. Since there are many comparisons for the % inhibition endpoint, p-value adjustment for multiple comparisons was performed. Hommel's procedure was implemented in order to improve the power while retaining […] Error Rate (FWE) control by using a sequentially rejective method. The p-values for both synergy and antagonism were calculated using this adjustment.

[7] = system: JIMT-1 breast cancer cells; assay: Cell growth inhibition (CellTiter-Glo), JIMT-1; assay type: cell-based; settings: Homo sapiens, JIMT-1, 72 h, 3 days
From the text: as §1

[8] = system: BT474-J4 lapatinib resistant breast carcinoma cells; assay: Cell growth inhibition (CellTiter-Glo), BT474-J4; assay type: cell-based; settings: Homo sapiens; for IC50: 72 h, 3 days
From the text: as §2, with “Error Rate (FWE) control by using a sequentially rejective method.” left out

[9] = system: BT474 breast carcinoma cells; assay: Cell growth inhibition (CellTiter-Glo), BT474; assay type: cell-based; settings: Homo sapiens, BT-474, 72 h, 3 days
From the text: Esophageal carcinoma cell line OE33 was purchased from ECACC European Collection of Cell Cultures (UK). Breast cancer cell line JIMT-1 and gastric carcinoma cell line MKN-45 were purchased from Deutsche Sammlung von Mikroorganismen and Zellkulturen GmbH (Germany); KPL-4, a human breast cancer cell line was kindly provided by Prof. J Kurebayashi (Kawasaki Medical School, Kurashiki, Japan). […] The LICR-LON-HN5 head and neck carcinoma cell line (HN5) was a gift from the Institute of Cancer Research, Surrey, U.K. HN5C12 was developed by single-cell cloning of HN5 followed by exposure to increasing concentrations of lapatinib. […] Cell growth inhibition was determined via CellTiter-Glo cell viability assays. […] BT474-J4 and HN5C12 were washed with PBS and plated in their culture media without lapatinib. […] ATP levels were determined by adding Cell Titer Glo0 (Promega), incubating for 20 minutes then the luminescent signal was read on the SpectraMax M5 plate with a 0.5 second integration time. Cell growth was calculated relative to vehicle (DMSO) treated control wells. […] EOHSA at each dose was calculated as the minimum difference in average % inhibition between the combination and each monotherapy, from the appropriate ANOVA contrast. […] The p-values for both synergy and antagonism were calculated using this adjustment.

[10] = system: phosphorylation of HER2, AKT, ERK and cyclin D1 in BT474 cells; assay: Western blot analysis, BT474; assay type: cell-based, human; settings: BT474, 1 μM, 4 h
Method: Cells were plated at 250,000 to 500,000 per well in six-well plates (Falcon multiwell, Becton Dickinson, Franklin Lakes, N.J.). The following day, cells were treated with compounds in the growth medium containing 10% FBS. After treatment, cells were washed with cold PBS and lysed in the culture dishes using cell lysis buffer [40 mmol/L Tris-HCl (pH 7.4), 10% glycerol, 50 mmol/L beta-glycerophosphate, 5 mmol/L EGTA, 2 mmol/L EDTA, 0.35 mmol/L vanadate, 10 mmol/L NaF, and 0.3% Triton X-100] containing protease inhibitors (Complete Protease Inhibitor Tablets, Boehringer Mannheim, Indianapolis, Ind.). […] The membrane blots were rinsed with PBS and blocked in Odyssey Blocking buffer for 1 h at RT. Blots were probed with antibodies against specific proteins in blocking buffer plus 0.1% Tween 20 and incubated for 2 h at room temperature. The membranes were washed and incubated with IRDye 680 or IRDye 800 secondary antibodies at RT for 1 h in blocking buffer plus 0.1% Tween 20. The membranes were developed with Odyssey Infrared Imaging System (LI-COR Biosciences, Lincoln, Nebr.).
Cell lysate (50 μg of total protein) or proteins immunoprecipitated with anti-phospho-Tyrosine antibody were loaded in SDS-PAGE gel. The antibody against specific protein was used in the western blot analysis.

IC50 ([1]; colon_HT-29, +HGF (2 ng/mL)): > 10 µM
IC50 ([1]; colon_HT-29, −HGF): > 10 µM
IC50 ([2]; colon_SW48, +HGF (2 ng/mL)): 2.62 µM
IC50 ([2]; colon_SW48, −HGF): 2.35 µM
IC50 ([3]; +HGF (2 ng/mL)): > 10 µM
IC50 ([3]; −HGF): > 10 µM
Compound: C#Cc1cccc(Nc2ncnc3cc(OCCOC)c(OCCOC)cc23)c1 [Erlotinib, N-(3-ethynylphenyl)-6,7-bis{[2-(methyloxy)ethyl]oxy}-4-quinazolinamine]

IC50 ([4]; +HRG (10 ng/mL)): 5.06 µM
IC50 ([4]; −HRG): 6.16 µM
IC50 ([5]; +HRG (10 ng/mL)): 7.37 µM
IC50 ([5]; −HRG): 7.69 µM
IC50 ([6]; Homo sapiens, OE33, 72 h, eso_OE33, +HGF (2 ng/mL)): > 10 µM
IC50 ([6]; Homo sapiens, OE33, 72 h, eso_OE33, −HGF): 6.5 µM
IC50 ([6]; eso_OE33, +HGF (2 ng/mL)): 5.52 µM
IC50 ([6]; eso_OE33, −HGF): 6.52 µM
IC50 ([7]; breast_JimT1, +HGF (2 ng/mL)): > 10 µM
IC50 ([7]; breast_JimT1, −HGF): > 10 µM
IC50 ([8]; breast_BT474-J4, +HGF (2 ng/mL)): > 10 µM
IC50 ([8]; breast_BT474-J4, −HGF): > 10 µM
IC50 ([9]; breast_BT474, +HGF (2 ng/mL)): 0.12 µM
IC50 ([9]; breast_BT474, −HGF): 0.11 µM
Compound: CS(=O)(=O)CCNCc1ccc(-c2ccc3ncnc(Nc4ccc(OCc5cccc(F)c5)c(Cl)c4)c3c2)o1 [Lapatinib, N-(3-chloro-4-{[(3-fluorophenyl)methyl]oxy}phenyl)-6-[5-({[2-(methylsulfonyl)ethyl]amino}methyl)-2-furanyl]-4-quinazolinamine]
inhibition at 1 µM ([8]; BT474-J4, lapatinib by itself at 1.0 μM (FIG. 5A)): < 50%
downstream signaling: phosphorylation of AKT and ERK, level of cyclin D1 [10]: inhibits
phosphorylation of HER2 [10]: inhibits

From patent US20130150363A1, “Method of Treating Cancer Using a cMET and AXL Inhibitor and an ErbB Inhibitor” (GlaxoSmithKline, priority 2008, published 2013)
